# From patent US20250257055A1, “TERTIARY AMIDE DERIVATIVES SUBSTITUTED WITH 4-MEMBERED RING STRUCTURE” (Sumitomo Pharma Co., Ltd., priority 2024, published 2025)
# Read-outs that look alike come from different tables or passages of the source.
# Assays:
# [1] = Membrane permeability test (PAMPA); assay type: in vitro ADME
# Method: The membrane permeability of the test compound was tested by parallel artificial membrane permeability assay (PAMPA) as follows. 200 μL of System solution (pION Inc.) containing the test compound and 4 μL of GIT Lipid-0 (pION Inc.) were added to the donor plate. 200 μL of Acceptor Sink Buffer (pION Inc.) was added to the acceptor plate. Both plates were overlapped and incubated at 37° C. for 4 hours, after which the UV of the solutions on the acceptor side and donor side was measured using a UV plate reader (190-500 nm). Compounds with poor UV absorption were measured using LC-MS. The permeability coefficient Pe (10^−6 cm/sec) of the drug was calculated using the following equation.
# G-401 cells = test: Cell proliferation inhibition experiment using G-401 cells; assay type: cell-based; conditions: Homo sapiens, 72 h, cultured for 3 days, CellTiter-Glo
# Method: G-401 cells (derived from malignant rhabdoid tumor) were obtained from the American Type Culture Collection (ATCC). G-401 cells were cultured in McCoy's 5A medium containing 10% fetal bovine serum and 1% penicillin/streptomycin under conditions of 37° C. and 5% CO2.
# 500 cells per well were seeded in a 384-well plate. One day after seeding, Examples 1 to 35 were added so that the final concentration of DMSO was 0.1%, and the cells were cultured for 3 days. After the culture was completed, the cell viability was measured using CellTiter-Glo Luminescent Cell Viability Assay (Promega, G7570).
# recombinant p300 = recombinant p300 (Homo sapiens (Human), UniProt Q09472); test: HAT activity inhibition experiment (SensoLyte HAT(p300) Assay Kit); assay type: biochemical; conditions: recombinant p300, histone H3 peptide, acetyl CoA
# recombinant p300, sequence (Q09472 whole entry): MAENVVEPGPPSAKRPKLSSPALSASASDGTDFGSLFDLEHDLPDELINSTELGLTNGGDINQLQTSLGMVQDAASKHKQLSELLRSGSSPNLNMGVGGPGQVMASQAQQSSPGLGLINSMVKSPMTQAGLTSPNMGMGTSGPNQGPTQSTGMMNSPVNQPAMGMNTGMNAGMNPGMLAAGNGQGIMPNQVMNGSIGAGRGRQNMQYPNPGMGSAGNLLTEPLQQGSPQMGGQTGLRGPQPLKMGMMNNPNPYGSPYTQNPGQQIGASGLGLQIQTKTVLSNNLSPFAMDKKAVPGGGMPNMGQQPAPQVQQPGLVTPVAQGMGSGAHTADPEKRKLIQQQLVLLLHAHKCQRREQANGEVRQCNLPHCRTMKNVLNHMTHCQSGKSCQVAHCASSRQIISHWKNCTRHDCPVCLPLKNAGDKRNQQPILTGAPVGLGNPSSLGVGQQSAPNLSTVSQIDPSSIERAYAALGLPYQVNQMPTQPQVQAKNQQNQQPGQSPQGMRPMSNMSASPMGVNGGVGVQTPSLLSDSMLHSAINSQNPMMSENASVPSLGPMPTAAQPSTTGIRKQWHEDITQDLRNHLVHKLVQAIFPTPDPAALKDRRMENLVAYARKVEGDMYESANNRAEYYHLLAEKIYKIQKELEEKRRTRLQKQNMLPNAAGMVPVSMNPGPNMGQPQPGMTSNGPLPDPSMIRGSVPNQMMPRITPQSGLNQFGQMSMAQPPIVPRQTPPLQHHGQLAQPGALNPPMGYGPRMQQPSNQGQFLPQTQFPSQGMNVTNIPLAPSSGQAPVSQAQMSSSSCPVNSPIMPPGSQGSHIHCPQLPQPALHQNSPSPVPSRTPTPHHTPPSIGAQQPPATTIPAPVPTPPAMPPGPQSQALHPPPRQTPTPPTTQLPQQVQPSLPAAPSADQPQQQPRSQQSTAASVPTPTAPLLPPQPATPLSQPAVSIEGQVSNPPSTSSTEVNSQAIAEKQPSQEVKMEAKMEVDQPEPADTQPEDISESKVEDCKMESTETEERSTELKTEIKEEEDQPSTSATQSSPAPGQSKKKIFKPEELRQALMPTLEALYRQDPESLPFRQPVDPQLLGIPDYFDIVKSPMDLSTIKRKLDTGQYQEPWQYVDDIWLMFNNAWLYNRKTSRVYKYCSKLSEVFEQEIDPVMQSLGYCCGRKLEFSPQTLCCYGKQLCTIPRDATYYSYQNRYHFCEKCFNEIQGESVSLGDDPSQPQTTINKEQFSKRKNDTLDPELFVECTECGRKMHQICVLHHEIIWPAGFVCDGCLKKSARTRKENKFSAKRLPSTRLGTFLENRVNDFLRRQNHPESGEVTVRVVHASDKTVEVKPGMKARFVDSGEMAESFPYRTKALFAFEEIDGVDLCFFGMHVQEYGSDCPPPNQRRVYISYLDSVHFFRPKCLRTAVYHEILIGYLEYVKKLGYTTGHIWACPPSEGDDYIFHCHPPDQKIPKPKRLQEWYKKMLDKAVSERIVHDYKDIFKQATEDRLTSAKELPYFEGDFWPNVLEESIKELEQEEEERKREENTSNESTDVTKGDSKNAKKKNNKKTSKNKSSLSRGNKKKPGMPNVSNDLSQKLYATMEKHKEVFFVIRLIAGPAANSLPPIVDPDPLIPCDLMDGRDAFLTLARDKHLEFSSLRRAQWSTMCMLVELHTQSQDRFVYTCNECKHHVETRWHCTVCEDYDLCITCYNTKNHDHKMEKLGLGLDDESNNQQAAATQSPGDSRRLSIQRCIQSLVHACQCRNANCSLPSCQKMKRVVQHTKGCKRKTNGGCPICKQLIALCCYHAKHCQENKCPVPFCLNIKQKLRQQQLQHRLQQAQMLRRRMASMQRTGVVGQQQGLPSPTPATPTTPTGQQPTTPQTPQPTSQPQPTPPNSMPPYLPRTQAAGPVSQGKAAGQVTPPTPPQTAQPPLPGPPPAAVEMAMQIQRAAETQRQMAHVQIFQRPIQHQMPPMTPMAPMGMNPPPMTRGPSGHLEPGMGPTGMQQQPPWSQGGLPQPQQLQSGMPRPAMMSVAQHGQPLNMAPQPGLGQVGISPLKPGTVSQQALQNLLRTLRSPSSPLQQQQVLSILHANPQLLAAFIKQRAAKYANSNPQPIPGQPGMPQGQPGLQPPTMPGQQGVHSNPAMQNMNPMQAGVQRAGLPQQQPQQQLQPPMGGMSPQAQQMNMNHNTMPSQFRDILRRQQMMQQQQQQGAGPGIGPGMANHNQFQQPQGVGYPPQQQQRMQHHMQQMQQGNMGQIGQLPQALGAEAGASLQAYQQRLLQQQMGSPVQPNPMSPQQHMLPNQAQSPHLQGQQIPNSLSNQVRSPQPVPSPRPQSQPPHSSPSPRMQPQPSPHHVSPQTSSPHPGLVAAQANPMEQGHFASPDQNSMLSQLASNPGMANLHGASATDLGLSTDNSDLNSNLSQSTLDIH
# Method: The HAT activity inhibitory ability of HAT inhibitors was evaluated using SensoLyte HAT(p300) Assay Kit (ANASPEC, AS-72172). Specifically, 7.5 μL of the compound of Examples […] diluted with assay buffer was added to 7.5 μL of recombinant p300 solution diluted 10 times with assay buffer, and the mixture was incubated at room temperature for 10 minutes. 7.5 μL of acetyl CoA solution diluted 10 times with assay buffer and 15 μL of histone H3 peptide diluted 10 times with assay buffer were added thereto, and the mixture was incubated at 37° C. for 30 minutes. 37.5 μL of Stop Solution was added to stop the reaction. 75 μL of p300 Developer solution diluted 50 times with assay buffer was added, and the mixture was incubated at room temperature for 30 minutes under light-shielded conditions. The fluorescence at 513 nm when irradiated with 389 nm excitation light was measured using a multiplate reader.
# [2] = pH 5.0, 37° C., read-out: pH 5.0 Pe
# [3] = pH 7.4, 37° C., read-out: pH 7.4 Pe
Compound,"Papp at 4 h [1, 2]","Papp at 4 h [1, 3]",IC50 (G-401 cells),IC50 (recombinant p300)
"CN1CC(F)(Cn2cc(-c3ccc4c(c3)CC[C@]43NC(=O)N(CC(=O)N(Cc4ccc(F)cc4)C4(C(F)(F)F)COC4)C3=O)cn2)C1 [Example 2, 2-[(1′S)-5′-{1-[(3-fluoro-1-methylazetidin-3-yl)methyl]-1H-pyrazol-4-yl}-2,5-dioxo-2′,3′-dihydrospiro[imidazolidine-4,1′-inden]-1-yl]-N-[(4-fluorophenyl)methyl]-N-[3-(trifluoromethyl)oxetan-3-yl]acetamide]",7.4 ×10⁻⁶ cm/s,19 ×10⁻⁶ cm/s,89 nM,19 nM
"O=C1N[C@]2(CCc3cc(-c4cnn(C5CN(C6COC6)C5)c4)ccc32)C(=O)N1CC(=O)N(Cc1ccc(F)cn1)C1(C(F)(F)F)COC1 [Example 6, N-[(5-fluoropyridin-2-yl)methyl]-2-[(1′S)-5′-{1-[1-(oxetan-3-yl)azetidin-3-yl]-1H-pyrazol-4-yl}-2,5-dioxo-2′,3′-dihydrospiro[imidazolidine-4,1′-inden]-1-yl]-N-[3-(trifluoromethyl)oxetan-3-yl]acetamide]",3.1 ×10⁻⁶ cm/s,5.5 ×10⁻⁶ cm/s,391 nM,19.8 nM
"O=C1N[C@]2(CCc3cc(-c4cnn(C5CN(C6COC6)C5)c4)ccc32)C(=O)N1CC(=O)N(Cc1ccc(F)cn1)C1(C(F)(F)F)CC(F)(F)C1 [Example 8, N-[3,3-difluoro-1-(trifluoromethyl)cyclobutyl]-N-[(5-fluoropyridin-2-yl)methyl]-2-[(1′S)-5′-{1-[1-(oxetan-3-yl)azetidin-3-yl]-1H-pyrazol-4-yl}-2,5-dioxo-2′,3′-dihydrospiro[imidazolidine-4,1′-inden]-1-yl]acetamide]",13.5 ×10⁻⁶ cm/s,14.3 ×10⁻⁶ cm/s,247 nM,–
"CN1CC(N(Cc2ccc(F)cc2)C(=O)CN2C(=O)N[C@]3(CCc4cc(-c5cnn(C(C)(C)C#N)c5)ccc43)C2=O)(C(F)(F)F)C1 [Example 13, 2-{(1′S)-5′-[1-(2-cyanopropan-2-yl)-1H-pyrazol-4-yl]-2,5-dioxo-2′,3′-dihydrospiro[imidazolidine-4,1′-inden]-1-yl}-N-[(4-fluorophenyl)methyl]-N-[1-methyl-3-(trifluoromethyl)azetidin-3-yl]acetamide]",26.2 ×10⁻⁶ cm/s,26.9 ×10⁻⁶ cm/s,20 nM,5.2 nM
"CN1CCn2ncc(-c3ccc4c(c3)[C@H](F)C[C@]43NC(=O)N(CC(=O)N(Cc4ccc(F)cc4)C4(C(F)(F)F)COC4)C3=O)c2C1 [Example 14, 2-[(1′S, 3′R)-3′-fluoro-5′-(5-methyl-4,5,6,7-tetrahydropyrazolo[1,5-a]pyrazin-3-yl)-2,5-dioxo-2′,3′-dihydrospiro[imidazolidine-4,1′-inden]-1-yl]-N-[(4-fluorophenyl)methyl]-N-[3-(trifluoromethyl)oxetan-3-yl]acetamide]",26.1 ×10⁻⁶ cm/s,27.9 ×10⁻⁶ cm/s,677 nM,124 nM
"CN1CC(N(Cc2ccc(F)cc2)C(=O)CN2C(=O)N[C@]3(C[C@@H](F)c4cc(-c5cnn(C)c5F)ccc43)C2=O)(C(F)(F)F)C1 [Example 15, 2-[(1′S,3′R)-3′-fluoro-5′-(5-fluoro-1-methyl-1H-pyrazol-4-yl)-2,5-dioxo-2′,3′-dihydrospiro[imidazolidine-4,1′-inden]-1-yl]-N-[(4-fluorophenyl)methyl]-N-[1-methyl-3-(trifluoromethyl)azetidin-3-yl]acetamide]",30 ×10⁻⁶ cm/s,33.3 ×10⁻⁶ cm/s,33 nM,6.1 nM
"CN1CC(N(Cc2ccc(F)cc2)C(=O)CN2C(=O)N[C@]3(CCc4cc(-c5cnn(C)c5F)ccc43)C2=O)(C(F)(F)F)C1 [Example 16, 2-[(1′S)-5′-(5-fluoro-1-methyl-1H-pyrazol-4-yl)-2,5-dioxo-2′,3′-dihydrospiro[imidazolidine-4,1′-inden]-1-yl]-N-[(4-fluorophenyl)methyl]-N-[1-methyl-3-(trifluoromethyl)azetidin-3-yl]acetamide]",29.2 ×10⁻⁶ cm/s,32 ×10⁻⁶ cm/s,310 nM,53.6 nM
"CN1CC(N(Cc2ccc(F)cc2)C(=O)CN2C(=O)N[C@]3(C[C@@H](F)c4cc(-c5cn(C)nc5F)ccc43)C2=O)(C(F)(F)F)C1 [Example 17, 2-[(1′S,3′R)-3′-fluoro-5′-(3-fluoro-1-methyl-1H-pyrazol-4-yl)-2,5-dioxo-2′,3′-dihydrospiro[imidazolidine-4,1′-inden]-1-yl]-N-[(4-fluorophenyl)methyl]-N-[1-methyl-3-(trifluoromethyl)azetidin-3-yl]acetamide]",28.1 ×10⁻⁶ cm/s,32.2 ×10⁻⁶ cm/s,25 nM,2.3 nM
"CN1CC(N(Cc2ccc(F)cc2)C(=O)CN2C(=O)N[C@]3(CCc4cc(-c5cn(C)nc5F)ccc43)C2=O)(C(F)(F)F)C1 [Example 18, 2-[(1′S)-5′-(3-fluoro-1-methyl-1H-pyrazol-4-yl)-2,5-dioxo-2′,3′-dihydrospiro[imidazolidine-4,1′-inden]-1-yl]-N-[(4-fluorophenyl)methyl]-N-[1-methyl-3-(trifluoromethyl)azetidin-3-yl]acetamide]",28.6 ×10⁻⁶ cm/s,31.8 ×10⁻⁶ cm/s,292 nM,58.2 nM
"CN1CC(N(Cc2ccc(F)cc2)C(=O)CN2C(=O)N[C@]3(C[C@@H](F)c4cc(-c5cnn(C6CCOCC6)c5)ccc43)C2=O)(C(F)(F)F)C1 [Example 19, 2-{(1′S,3′R)-3′-fluoro-5′-[1-(oxan-4-yl)-1H-pyrazol-4-yl]-2,5-dioxo-2′,3′-dihydrospiro[imidazolidine-4,1′-inden]-1-yl}-N-[(4-fluorophenyl)methyl]-N-[1-methyl-3-(trifluoromethyl)azetidin-3-yl]acetamide]",24.4 ×10⁻⁶ cm/s,28.9 ×10⁻⁶ cm/s,24 nM,7.2 nM
"CN1CC(N(Cc2ccc(F)cn2)C(=O)CN2C(=O)N[C@]3(CCc4cc(-c5cnn(C)c5)ccc43)C2=O)(C(F)(F)F)C1 [Example 21, N-[(5-fluoropyridin-2-yl)methyl]-2-[(1′S)-5′-(1-methyl-1H-pyrazol-4-yl)-2,5-dioxo-2′,3′-dihydrospiro[imidazolidine-4,1′-inden]-1-yl]-N-[1-methyl-3-(trifluoromethyl)azetidin-3-yl]acetamide]",6.2 ×10⁻⁶ cm/s,21.2 ×10⁻⁶ cm/s,353 nM,52 nM
"CN(C)C1(Cn2cc(-c3ccc4c(c3)[C@H](F)C[C@]43NC(=O)N(CC(=O)N(Cc4ccc(F)cc4)C4(C(F)(F)F)COC4)C3=O)cn2)COC1 [Example 22, 2-[(1′S,3′R)-5′-(1-{[3-(dimethylamino)oxetan-3-yl]methyl}-1H-pyrazol-4-yl)-3′-fluoro-2,5-dioxo-2′,3′-dihydrospiro[imidazolidine-4,1′-inden]-1-yl]-N-[(4-fluorophenyl)methyl]-N-[3-(trifluoromethyl)oxetan-3-yl]acetamide]",21.2 ×10⁻⁶ cm/s,23 ×10⁻⁶ cm/s,68 nM,11 nM
"CN1CC(N(Cc2ccc(F)cn2)C(=O)CN2C(=O)N[C@]3(C[C@@H](F)c4cc(-c5cnn(C(C)(C)C#N)c5)ccc43)C2=O)(C(F)(F)F)C1 [Example 26, 2-{(1′S,3′R)-5′-[1-(2-cyanopropan-2-yl)-1H-pyrazol-4-yl]-3′-fluoro-2,5-dioxo-2′,3′-dihydrospiro[imidazolidine-4,1′-inden]-1-yl}-N-[(5-fluoropyridin-2-yl)methyl]-N-[1-methyl-3-(trifluoromethyl)azetidin-3-yl]acetamide]",10.2 ×10⁻⁶ cm/s,16.3 ×10⁻⁶ cm/s,14 nM,9.2 nM
"CN1CC(N(Cc2ccc(F)cn2)C(=O)CN2C(=O)N[C@]3(C[C@@H](F)c4cc(-c5cnn(C(C)(C)CO)c5)ccc43)C2=O)(C(F)(F)F)C1 [Example 27, 2-{(1′S,3′R)-3′-fluoro-5′-[1-(1-hydroxy-2-methylpropan-2-yl)-1H-pyrazol-4-yl]-2,5-dioxo-2′,3′-dihydrospiro[imidazolidine-4,1′-inden]-1-yl}-N-[(5-fluoropyridin-2-yl)methyl]-N-[1-methyl-3-(trifluoromethyl)azetidin-3-yl]acetamide]",0.6 ×10⁻⁶ cm/s,3.5 ×10⁻⁶ cm/s,22 nM,6.8 nM
"CN1CC(N(Cc2ccc(F)cc2)C(=O)CN2C(=O)N[C@@]3(C[C@H](F)c4cc(-c5cnn(C)c5)c(F)cc43)C2=O)(C(F)(F)F)C1 [Example 28, 2-[(1′R,3'S)-3′,6′-difluoro-5′-(1-methyl-1H-pyrazol-4-yl)-2,5-dioxo-2′,3′-dihydrospiro[imidazolidine-4,1′-inden]-1-yl]-N-[(4-fluorophenyl)methyl]-N-[1-methyl-3-(trifluoromethyl)azetidin-3-yl]acetamide]",25.7 ×10⁻⁶ cm/s,30 ×10⁻⁶ cm/s,–,–
